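48-hour exposure; five concentrations; linearly interpolated endpoints. The concentration for 50% growth inhibition is given as GI50. TGI marks complete inhibition of growth.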
Legend:
Assay in all cases: inhibition of tumour cell growth, NCI panel, 48 h
SK-MEL-5 melanoma = tested on: SK-MEL-5 melanoma
MOLT-4 leukemia = tested on: MOLT-4 leukemia
SK-MEL-28 melanoma = tested on: SK-MEL-28 melanoma
CAKI-1 renal = tested on: CAKI-1 renal
U251 CNS = tested on: U251 CNS
SNB-19 CNS = tested on: SNB-19 CNS
EKVX NSCLC = tested on: EKVX NSCLC
RPMI-8226 leukemia = tested on: RPMI-8226 leukemia
NCI-H460 lung = tested on: NCI-H460 lung
DU-145 prostate = tested on: DU-145 prostate

| SMILES | TGI (SK-MEL-5 melanoma) | TGI (MOLT-4 leukemia) | TGI (SK-MEL-28 melanoma) | TGI (CAKI-1 renal) | TGI (U251 CNS) | TGI (SNB-19 CNS) | TGI (EKVX NSCLC) | TGI (RPMI-8226 leukemia) | TGI (NCI-H460 lung) | GI50 (SK-MEL-5 melanoma) | GI50 (MOLT-4 leukemia) | GI50 (SK-MEL-28 melanoma) | GI50 (CAKI-1 renal) | GI50 (U251 CNS) | GI50 (DU-145 prostate) | TGI (DU-145 prostate) | GI50 (SNB-19 CNS) | GI50 (RPMI-8226 leukemia) | GI50 (NCI-H460 lung) | GI50 (EKVX NSCLC) |
| --- | --- | --- | --- | --- | --- | --- | --- | --- | --- | --- | --- | --- | --- | --- | --- | --- | --- | --- | --- | --- |
| CCOC(=O)/C=C1\Nc2ccccc2-n2nnnc21 | > 100 µM | > 100 µM | > 100 µM | > 100 µM | 64.5 µM | > 100 µM | > 100 µM | > 100 µM | > 100 µM |  |  |  |  |  |  |  |  |  |  |  |
| COC(=O)C(=O)C(C(=O)C(=O)Nc1cc([N+](=O)[O-])ccc1[N+](=O)[O-])c1nc2ccc(C(=O)c3ccccc3)cc2[nH]c1=O (centres undefined) | 45.9 µM | 61.5 µM |  | > 100 µM | > 100 µM | > 100 µM | > 100 µM | 62.4 µM | > 100 µM |  |  |  |  |  |  |  |  |  |  |  |
| Cc1c(CCl)c(=O)oc2c(C)c3occ(CCl)c(=O)c3cc12 | > 100 µM | 22.8 µM | 35.4 µM |  | > 100 µM | 54.7 µM | > 100 µM | 26.8 µM | > 100 µM |  |  |  |  |  |  |  |  |  |  |  |
| CCC(=C(c1ccc(OCc2ccccc2)cc1)c1ccc(OCc2ccccc2)cc1)c1ccc(OC)cc1 | > 100 µM | > 100 µM | > 100 µM | > 100 µM | > 100 µM | > 100 µM | > 100 µM | > 100 µM | > 100 µM |  |  |  |  |  |  |  |  |  |  |  |
| COc1ccc2c(c1)[n+]([O-])c(-c1nc3ccccc3s1)c(N)[n+]2[O-] | > 100 µM | > 100 µM | > 100 µM | > 100 µM | > 100 µM | > 100 µM | > 100 µM | > 100 µM | > 100 µM |  |  |  |  |  |  |  |  |  |  |  |
| CCCCCCCCCCCC(=O)OCC1OC(n2cc(F)c(=O)[nH]c2=O)C(N)C(O)C1O (centres undefined) | > 100 µM | > 100 µM | > 100 µM | > 100 µM | > 100 µM | > 100 µM | > 100 µM | > 100 µM | > 100 µM |  |  |  |  |  |  |  |  |  |  |  |
| Nc1nc(N)c(-c2ccc(Cl)cc2)c(CCC(=O)Nc2cccc(C(F)(F)F)c2)n1 | > 100 µM | > 100 µM | > 100 µM | > 100 µM | > 100 µM | > 100 µM | > 100 µM |  | > 100 µM |  |  |  |  |  |  |  |  |  |  |  |
| CN(C)CC1CCn2c(c(C3=C(c4cn(C)c5ccccc45)C(=O)NC3=O)c3ccccc32)C1 (centres undefined) | 7.49 µM | 13.9 µM | 8.74 µM | 7.66 µM | 7.64 µM | 10.4 µM |  | 11 µM | 8.68 µM | 3.9 µM | 4.74 µM | 4.59 µM | 3.44 µM | 3.95 µM | 4.91 µM | 10.9 µM | 4.84 µM | 4.89 µM | 4.57 µM |  |
| CC1C(=O)N(C)C2(CO)C(=O)O[C@H](C)C12O (some centres undefined) | > 100 µM | > 100 µM | > 100 µM | > 100 µM | > 100 µM | > 100 µM | > 100 µM | > 100 µM |  |  |  |  |  |  |  |  |  |  |  |  |
| COc1ccc(F)cc1C(=O)c1cnc(NC2CCN(S(C)(=O)=O)CC2)nc1N | > 21.4 µM | > 19 µM | > 16.4 µM | > 17.6 µM | > 19.6 µM | > 25 µM |  | 13.1 µM | > 25 µM | 3.12 µM | 2.66 µM | 3.38 µM | 2.88 µM | 1.07 µM | 5.52 µM | 24.5 µM | 1.8 µM | 3.27 µM | 0.783 µM |  |
| Clc1ccc(CO/N=C(\Cn2ccnc2)c2ccc(Cl)cc2Cl)c(Cl)c1 | 3.03 µM | 4.94 µM | 3.07 µM | 3.39 µM | 2.94 µM |  | 2.83 µM | 4.52 µM |  | 1.63 µM | 2.19 µM | 1.67 µM | 1.38 µM | 1.51 µM | 1.96 µM | 3.66 µM |  | 1.45 µM |  | 1.43 µM |
| CCOC(=O)C1=C(C)N(NC(=O)c2ccccc2)C2(O)CCCC12C(=O)OCC (centres undefined) | > 100 µM | > 100 µM | > 100 µM | > 100 µM | > 100 µM | > 100 µM | > 100 µM | > 100 µM | > 100 µM |  |  |  |  |  |  |  |  |  |  |  |
| CSC(=S)NNC(=O)c1ccncc1 | 62.6 µM | 55.6 µM | 44 µM | 56.2 µM | 41.9 µM | 53.1 µM | 57.6 µM | 47.8 µM | > 100 µM |  |  |  |  |  |  |  |  |  |  |  |
| CCCCCCCCCC(=O)OCC1OC(n2cc(F)c(=O)[nH]c2=O)C(N)C(OC(=O)CCCCCCCCC)C1O (centres undefined) | 37.4 µM | 32.7 µM | 30.4 µM | > 100 µM | 32.3 µM | 33.6 µM | 34.1 µM | 48.4 µM | 40.5 µM |  |  |  |  |  |  |  |  |  |  |  |
| O=C(NCC#CCO)C(F)(F)F | > 100 µM | > 100 µM | > 100 µM | > 100 µM | > 100 µM | > 100 µM | > 100 µM |  | > 100 µM |  |  |  |  |  |  |  |  |  |  |  |
| O=C(O)/C(Cl)=C(\Cl)C(=O)Nc1ccccc1 | > 100 µM | > 100 µM | > 100 µM | > 100 µM | > 100 µM | > 100 µM | > 100 µM | > 100 µM | > 100 µM |  |  |  |  |  |  |  |  |  |  |  |
| CC12CC3CC(C)(C1)CC(N=[N+]=[N-])(C3)C2 | > 100 µM | > 100 µM | > 100 µM | > 100 µM | > 100 µM | > 100 µM | > 100 µM | > 100 µM | > 100 µM |  |  |  |  |  |  |  |  |  |  |  |
| Cc1ccc(S(=O)(=O)N/N=C(\C(=O)Nc2cccc([N+](=O)[O-])c2)c2nc3ccc([N+](=O)[O-])cc3[nH]c2=O)cc1 | > 100 µM | > 100 µM | > 100 µM | > 100 µM | > 100 µM | > 100 µM | > 100 µM | > 100 µM | > 100 µM |  |  |  |  |  |  |  |  |  |  |  |
| Cc1cc(C)n(-c2c(O)ccc(O)c2-n2nc(C)cc2C)n1 | > 100 µM | > 100 µM | > 100 µM | > 100 µM | > 100 µM | > 100 µM | > 100 µM | > 100 µM | > 100 µM |  |  |  |  |  |  |  |  |  |  |  |
| CN=S(=O)(C[C@]1(O)CC2OC1C1OC(C)(C)OC21)c1ccccc1 (some centres undefined) | > 100 µM | > 100 µM | > 100 µM | > 100 µM | > 100 µM | > 100 µM | > 100 µM | > 100 µM | > 100 µM |  |  |  |  |  |  |  |  |  |  |  |
| Cc1c(Cl)ccc2c1NC(=O)C2(O)C1Cc2ccccc2C1=O (centres undefined) | > 100 µM | > 100 µM | > 100 µM | > 100 µM | > 100 µM | > 100 µM | > 100 µM | > 100 µM | > 100 µM |  |  |  |  |  |  |  |  |  |  |  |
